Test results reported in patent US20220214361A1, “Method for Screening Candidate Drug for Treating Degenerative Brain Diseases” (THE INDUSTRY & ACADEMIC COOPERATION IN CHUNGNAM NATIONAL …, priority 2019, published 2022).
“Also recorded” adds a separate entry of the source.

Columns and labels:
[1] = tested on: FAF1 protein secretion in SH-SY5Y cells overexpressing FAF1; assay: Secretion of FAF1 protein into culture medium after treatment with compounds that increase or decrease exosome secretion, Western blotting; type: cell-based, human; details: 10 μM, 24 hours, serum-free DMEM, SH-SY5Y cells transfected with 3x Flag tag-FAF1 vector, FIG. 3
Experimental: Particularly, SH-SY5Y cells were aliquoted into 60 mm culture dishes at the density of 5×10^5 cells/dish, and subcultured in DMEM (Dulbecco/s Modified Eagle's Medium) supplemented with antibiotics and 10% FBS (fetal bovine serum) under the conditions of 37° C. and 5% CO2 for 24 hours. The cultured SH-SY5Y cells were transfected with 2 μg of 3x Flag tag-FAF1 expression vector to overexpress FAF1 protein, cultured for 24 hours, and then washed with PBS buffer. Thereafter, the medium was replaced with serum-free DMEM (Dulbecco/s Modified Eagle's Medium), and the cells were treated with 10 μM Monensin compound to increase exosome secretion and 10 μM GW4869 compound to decrease exosome secretion, and further cultured for 24 hours. The medium was transferred to a 15 ml tube and centrifuged at 1500 rpm for 2 minutes to obtain a supernatant. The obtained supernatant was placed in Amicon Ultra-4 Centrifugal Filter, and centrifuged again at 4000×g, 4° C. for 15 minutes. The protein filtered by the filter was analyzed by Western blotting.

[2] = tested on: FAF1 protein secretion in SH-SY5Y cells overexpressing FAF1; assay: Secretion of FAF1 protein into culture medium after Brefeldin A treatment (ER-Golgi pathway), Western blotting; type: cell-based, human; details: 10 μM, 24 hours, serum-free DMEM, SH-SY5Y cells transfected with 3x Flag tag-FAF1 vector, FIG. 2b
Experimental: Particularly, SH-SY5Y cells were aliquoted into 60 mm culture dishes at the density of 5×10^5 cells/dish, and subcultured in DMEM (Dulbecco/s Modified Eagle's Medium) supplemented with antibiotics and 10% FBS (fetal bovine serum) under the conditions of 37° C. and 5% CO2 for 24 hours. The cultured SH-SY5Y cells were transfected with 2 μg of 3x Flag tag-FAF1 expression vector to overexpress FAF1 protein, cultured for 24 hours, and then washed with PPS buffer. Thereafter, the medium was replaced with serum-free DMEM (Dulbecco/s Modified Eagle's Medium), and the cells were treated with 10 μM Brefeldin A (BFA), a compound that inhibits protein secretion through the ER-Golgi pathway, and further cultured in an incubator for 24 hours. The medium was transferred to a 15 ml tube and centrifuged at 1500 rpm for 2 minutes to obtain a supernatant. The obtained supernatant was placed in Amicon Ultra-4 Centrifugal Filter, and centrifuged again at 4000×g, 4° C. for 15 minutes. The protein filtered by the filter was analyzed by Western blotting.

## CC[C@@]1([C@@H]2O[C@@H]([C@H]3O[C@@](O)(CO)[C@H](C)C[C@@H]3C)C[C@@H]2C)CC[C@H]([C@]2(C)CC[C@]3(C[C@H](O)[C@@H](C)[C@@H]([C@@H](C)[C@@H](OC)[C@H](C)C(=O)O)O3)O2)O1 [Monensin]
[1]
  secretion amount of FAF1 compared to control group: significantly increased

## C[C@H]1CCC/C=C/[C@@H]2C[C@H](O)C[C@H]2[C@H](O)/C=C/C(=O)O1 [Brefeldin A]
[2]
  expression level of FAF1 protein (secreted into culture medium) versus group not treated: constant; also recorded: no difference

## O=C(/C=C/c1ccc(/C=C/C(=O)Nc2ccc(C3=NCCN3)cc2)cc1)Nc1ccc(C2=NCCN2)cc1 [GW4869]
[1]
  secretion amount of FAF1 compared to control group: decreased
